Test [1] has as its target human GPR54 (Homo sapiens, UniProt Q969F8). The test can be described thus: Flow cytometric calcium flux assay, response to peptide alone (agonist / intrinsic activity). Format: cell-based. Further details: host or cells: rat hematopoietic CHEM1 cells expressing endogenous Galpha15. The conditions noted are these: any tested concentration, 10^-13 to 10^-5 M; n = 3. The protocol: In vitro analyses of the effects of kisspeptin and kisspeptin antagonists, were performed using HT[…] cells (rat hematopoietic CHEM1 cells expressing endogenous Gα15 and, stably expressing the human GPR54 receptor (Millipore BV, the Netherlands), CHEM1-GPR54. Cells were counted and suspended in HBSS+++ at a concentration of 5*10^6 cells/ml. To load the cells with the fluorescent dye ester they were incubated in HBSS+++ adjusted to a concentration of 2 μM Fluo-3 AM (Molecular Probes, Life Technologies, the Netherlands) for 1h at 37°C under agitation in the dark. After incubation, the cells were washed by adding HBSS+++ to a volume of 10 ml followed by centrifugation (5 min, 150 x g) to remove excess of Fluo-3AM. […] Thereafter the tube was removed briefly and 25 μl peptide (see below) was added, after which aspiration and analysis continued. For statistical analyses fluorescent data recorded during the time interval 30-60 seconds after initiation of measurement were used. […] Experiments were performed 3 times. Representative flow cytometry results are depicted in Fig 1. […] We then assessed whether these antagonists could compete with KP10 for its receptor. […] For this purpose 25 μl quantities of the antagonists were added to 200 μl of Fluo-3 AM labelled cells (10^6 cells/ml) and incubated for 15 min. […] Peptides p354 and p356 were tested three times with both human and canine KP10; while peptides p234 and p271 were tested three times with human KP10 and once with canine KP10. […] A multivariate general linear model was set up to analyze differences in calcium response between the different concentrations, with Dunnett's test as a post hoc procedure for the antagonists and Bonferroni's test for the agonists.

Test [2] concerns plasma LH concentration. The conditions noted are these: bitches; anestrus, follicular phase, two stages of luteal phase; cited from earlier work. The source says:
Sensitivity to exogenous KP10 differs according to the stage of the reproductive cycle, as has been shown in rats, ewes, bitches, and women. In the bitch, the highest KP10-induced LH response was obtained during anestrus and the lowest was during the follicular phase. It is possible that the effects of a KP antagonist also differ among the cycle stages.

Consider one substance from article PMC5484485, “In vitro and in vivo effects of kisspeptin antagonists p234, p271, p354, and p356 on GPR54 activation” (PLoS ONE, 2017).

Square brackets hold non-standard residues; d marks the D form. Ends that are not written are not given here.

Sequence of human GPR54 (Q969F8 whole entry): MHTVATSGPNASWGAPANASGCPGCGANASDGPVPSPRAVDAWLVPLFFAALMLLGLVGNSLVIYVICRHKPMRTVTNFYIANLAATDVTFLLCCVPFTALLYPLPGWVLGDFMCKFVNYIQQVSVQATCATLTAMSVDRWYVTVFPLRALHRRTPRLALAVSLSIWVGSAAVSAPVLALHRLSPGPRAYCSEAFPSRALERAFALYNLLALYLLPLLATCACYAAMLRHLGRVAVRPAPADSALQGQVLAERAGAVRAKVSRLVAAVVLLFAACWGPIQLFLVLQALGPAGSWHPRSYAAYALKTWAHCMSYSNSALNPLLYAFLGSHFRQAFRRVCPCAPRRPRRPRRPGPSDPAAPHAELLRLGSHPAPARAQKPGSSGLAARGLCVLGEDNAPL

For “RRMKWKKY[dA]NWNGFG[dW]RF-NH2 [p271, p234 with a penetratin tag]”, in test [1], the intrinsic calcium response result is reported as “no significant intrinsic calcium response”. Also, the “effect on basal plasma LH concentration, different stages of estrous cycle” value in test [2] is given as “did not result in a decrease”.
